In PubChem BioAssay AID248 (DTP/NCI, 2004):
Values joined by “and” are separate entries in the source; they are usually repeats but may differ in a detail not shown here. Identical values can stand only once. Toxic doses and inconclusive results are not listed. Cut-off read from the data, not from the text of the source: active = T/C of 150% or more; inactive = T/C below 125%.

Test system: L1210 leukemia ip in BDF1 mice, survival T/C
Experiment: NCI In Vivo Anticancer Drug Screen. Data for tumor model L1210 Leukemia (intraperitoneal) in B6D2F1 (BDF1) mice
Settings: endpoint: mean survival time, higher = longer survival
Procedure, shortened: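 Each compound was tested against a transplantable tumor grown in mice. The endpoint was survival, with treated animals benchmarked against vehicle controls as a simple ratio.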

[1] = dose: 12.5 mg/kg/injection, schedule: Q01DX009 (ip), vehicle: Klucel (hydroxypropylcellulose) (HPC)
[2] = dose: 25.0 mg/kg/injection, schedule: Q01DX009 (ip), vehicle: Klucel (hydroxypropylcellulose) (HPC)
[3] = dose: 50.0 mg/kg/injection, schedule: Q01DX009 (ip), vehicle: Klucel (hydroxypropylcellulose) (HPC)
[4] = dose: 100.0 mg/kg/injection, schedule: Q01DX009 (ip), vehicle: Klucel (hydroxypropylcellulose) (HPC)
[5] = dose: 100.0 mg/kg/injection, schedule: Q04DX003 (ip), vehicle: Klucel (hydroxypropylcellulose) (HPC)
[6] = dose: 200.0 mg/kg/injection, schedule: Q01DX009 (ip), vehicle: Klucel (hydroxypropylcellulose) (HPC)
[7] = dose: 200.0 mg/kg/injection, schedule: Q04DX003 (ip), vehicle: Klucel (hydroxypropylcellulose) (HPC)
[8] = dose: 400.0 mg/kg/injection, schedule: Q04DX003 (ip), vehicle: Klucel (hydroxypropylcellulose) (HPC)
[9] = dose: 25.0 mg/kg/injection, schedule: Q04DX003 (ip), vehicle: Klucel (hydroxypropylcellulose) (HPC)
[10] = dose: 50.0 mg/kg/injection, schedule: Q04DX003 (ip), vehicle: Klucel (hydroxypropylcellulose) (HPC)
[11] = dose: 100.0 mg/kg/injection, schedule: Q01DX001 (ip), vehicle: saline
[12] = dose: 200.0 mg/kg/injection, schedule: Q01DX001 (ip), vehicle: saline
[13] = dose: 400.0 mg/kg/injection, schedule: Q01DX001 (ip), vehicle: saline
[14] = dose: 100.0 mg/kg/injection, schedule: Q04DX003 (ip), vehicle: saline with Tween-80
[15] = dose: 200.0 mg/kg/injection, schedule: Q04DX003 (ip), vehicle: saline with Tween-80
[16] = dose: 400.0 mg/kg/injection, schedule: Q04DX003 (ip), vehicle: saline with Tween-80
[17] = dose: 400.0 mg/kg/injection, schedule: Q01DX009 (ip), vehicle: Klucel (hydroxypropylcellulose) (HPC)
[18] = dose: 100.0 mg/kg/injection, schedule: Q04DX002 (ip), vehicle: Klucel (hydroxypropylcellulose) (HPC)

Measured: T/C

O=c1[nH]c2ccccc2c(C(Cl)(Cl)Cl)c1Cl
inactive: [1] 93 % of control | [2] 90 % of control | [3] 100 % of control and 108 % of control | [4] 93 % of control

O=C(O)c1ccccc1C(=O)OC1CC2C=CC1C21CC1 (configuration not stated)
inactive: [3] 98 % of control | [4] 96 % of control and 95 % of control | [5] 95 % of control | [6] 100 % of control and 113 % of control | [7] 104 % of control and 106 % of control | [8] 101 % of control

C[N+](C)(C)Cc1ccccc1C=C(c1ccccc1)c1ccccc1
inactive: [1] 98 % of control | [2] 104 % of control | [9] 101 % of control | [3] 98 % of control | [10] 88 % of control

SCc1ccccn1
inactive: dose: 30.0 mg/kg/injection, schedule: Q01DX015 (ip), vehicle: saline 103 % of control | dose: 60.0 mg/kg/injection, schedule: Q01DX015 (ip), vehicle: saline 94 % of control | [11] 107 % of control | dose: 120.0 mg/kg/injection, schedule: Q01DX015 (ip), vehicle: saline 120 % of control | [12] 107 % of control | dose: 240.0 mg/kg/injection, schedule: Q01DX015 (ip), vehicle: saline 111 % of control | [13] 107 % of control | dose: 400.0 mg/kg/injection, schedule: Q01DX015 (ip), vehicle: saline 90 % of control

CCCCCCCCCCCCCCC(CCCCCCCCCCCCCC)C1CCCCC1
inactive: dose: 100.0 mg/kg/injection, schedule: Q01DX001 (ip), vehicle: saline with Tween-80 92 % of control | dose: 200.0 mg/kg/injection, schedule: Q01DX001 (ip), vehicle: saline with Tween-80 95 % of control | dose: 400.0 mg/kg/injection, schedule: Q01DX001 (ip), vehicle: saline with Tween-80 94 % of control

O=C(O)CC(NS(=O)(=O)Cc1ccccc1)C(=O)O (configuration not stated)
inactive: dose: 100.0 mg/kg/injection, schedule: Q04DX003 (ip), vehicle: other 94 % of control | dose: 200.0 mg/kg/injection, schedule: Q04DX003 (ip), vehicle: other 92 % of control | dose: 400.0 mg/kg/injection, schedule: Q04DX003 (ip), vehicle: other 92 % of control

COCCOC(C)C(/C=N/NC(N)=S)=N/NC(N)=S (configuration not stated)
inactive: dose: 50.0 mg/kg/injection, schedule: Q01DX001 (ip), vehicle: saline 100 % of control | [11] 100 % of control | [12] 93 % of control | [13] 97 % of control

O/N=C(\CC(O)(C(F)(F)F)C(F)(F)F)c1cccs1
inactive: dose: 50.0 mg/kg/injection, schedule: Q04DX003 (ip), vehicle: saline with Tween-80 98 % of control | [14] 98 % of control | [15] 98 % of control | [16] 95 % of control

Cc1ccc(Cl)cc1NC(=O)COc1ccc(Cl)cc1Cl
inactive: dose: 100.0 mg/kg/injection, schedule: Q01DX009 (ip), vehicle: saline with Tween-80 96 % of control | [14] 107 % of control | dose: 200.0 mg/kg/injection, schedule: Q01DX009 (ip), vehicle: saline with Tween-80 93 % of control | [15] 93 % of control | dose: 400.0 mg/kg/injection, schedule: Q01DX009 (ip), vehicle: saline with Tween-80 93 % of control | [16] 98 % of control

COc1ccc(NC(=O)Nc2ccccc2Cl)c(OC)c1
inactive: dose: 100.0 mg/kg/injection, schedule: Q04DX002 (ip), vehicle: saline with Tween-80 87 % of control | dose: 400.0 mg/kg/injection, schedule: Q04DX002 (ip), vehicle: saline with Tween-80 87 % of control

O=C(Nc1cccc(O)c1)c1ccc([N+](=O)[O-])cc1
inactive: [4] 93 % of control | [6] 90 % of control | [17] 90 % of control

O=[N+]([O-])c1ccc(N=C=S)cc1
inactive: [9] 95 % of control | [10] 95 % of control | [5] 93 % of control

C=CCCCCCCCC/C=N\NC(=O)c1ccc[n+](C)c1
inactive: dose: 50.0 mg/kg/injection, schedule: Q01DX009 (ip), vehicle: saline 106 % of control | dose: 100.0 mg/kg/injection, schedule: Q01DX009 (ip), vehicle: saline 100 % of control

O=S=Nc1c(Cl)cc(Cl)cc1Cl
inactive: [4] 101 % of control | [6] 104 % of control | [17] 108 % of control

CC(=O)N(N=Nc1ccccc1)c1cccc2ccccc12
inactive: [4] 116 % of control | [5] 108 % of control | [6] 96 % of control | [7] 109 % of control | [8] 108 % of control

Clc1ccccc1C=Nc1cccc2ccccc12
inactive: [4] 121 % of control | [6] 104 % of control | [17] 107 % of control

CCCC(CCCC(=O)O)C(=O)O (configuration not stated)
inactive: dose: 50.0 mg/kg/injection, schedule: Q01DX001 (ip), vehicle: carboxymethylcellulose (CMC) 86 % of control | dose: 100.0 mg/kg/injection, schedule: Q01DX001 (ip), vehicle: carboxymethylcellulose (CMC) 90 % of control | dose: 200.0 mg/kg/injection, schedule: Q01DX001 (ip), vehicle: carboxymethylcellulose (CMC) 92 % of control | dose: 400.0 mg/kg/injection, schedule: Q01DX001 (ip), vehicle: carboxymethylcellulose (CMC) 90 % of control

COc1cc(C)c2c(OC)ccc(OC)c2n1
inactive: [11] 94 % of control | [12] 97 % of control | [13] 103 % of control

O=C(O)COc1ccccc1[N+](=O)[O-]
inactive: [18] 96 % of control | dose: 200.0 mg/kg/injection, schedule: Q04DX002 (ip), vehicle: Klucel (hydroxypropylcellulose) (HPC) 100 % of control | dose: 400.0 mg/kg/injection, schedule: Q04DX002 (ip), vehicle: Klucel (hydroxypropylcellulose) (HPC) 96 % of control

c1ccc(N/N=C2/CCN3CCCc4cccc2c43)cc1
inactive: dose: 3.0 mg/kg/injection, schedule: Q01DX009 (ip), vehicle: DMSO 98 % of control | dose: 6.0 mg/kg/injection, schedule: Q01DX009 (ip), vehicle: DMSO 96 % of control | dose: 12.0 mg/kg/injection, schedule: Q01DX009 (ip), vehicle: DMSO 95 % of control | dose: 12.5 mg/kg/injection, schedule: Q04DX003 (ip), vehicle: DMSO 101 % of control | dose: 25.0 mg/kg/injection, schedule: Q01DX009 (ip), vehicle: DMSO 89 % of control | dose: 25.0 mg/kg/injection, schedule: Q04DX003 (ip), vehicle: DMSO 100 % of control | dose: 50.0 mg/kg/injection, schedule: Q04DX003 (ip), vehicle: DMSO 104 % of control | dose: 100.0 mg/kg/injection, schedule: Q04DX003 (ip), vehicle: gum acacia 95 % of control

CC(C)COP(=O)(Cc1ccccc1)OCC(C)C
inactive: [4] 110 % of control | [6] 101 % of control

O=Cc1cccn1-c1cccc2c(-n3cccc3C=O)cccc12
inactive: dose: 25.0 mg/kg/injection, schedule: Q04DX002 (ip), vehicle: Klucel (hydroxypropylcellulose) (HPC) 97 % of control | dose: 50.0 mg/kg/injection, schedule: Q04DX002 (ip), vehicle: Klucel (hydroxypropylcellulose) (HPC) 93 % of control | [18] 97 % of control
